Assay results taken from the supplement of paper PMC4932681.
Counter-ions that a name gives are not always drawn.

Assays:
ZR-75-1 [1] = test: drug sensitivity score (DSS) (DSS (dimensionless)); higher = more sensitive; extreme values may be limits of the assay; details: 72 h
How it was run: (§1)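 After seeding into 384-well plates with library drugs at five concentrations spanning a 10 000-fold range, breast cancer cell lines and their resistant derivatives were incubated 72 h at 37 °C. Resistant lines received medium with 1 μM of the selecting drug. CellTiter-Glo signal was read on a PHERAstar and scaled to vehicle-only and positive controls. Drug sensitivity score, relative IC50 (the curve midpoint) and top-dose inhibition came from logistic fits run in the Breeze pipeline.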

BT-474 Tam1 [2] = test: as above; details: 4-OH-tamoxifen in medium 1 µM; 72 h
How it was run: as §1

MCF-7 Tam1 [3] = test: as above; details: 4-OH-tamoxifen in medium 1 µM; 72 h
How it was run: as §1

MCF-7 [4] = test: as above; details: 72 h
How it was run: as §1

ZR-75-1 Tam1 [5] = test: as above; details: 4-OH-tamoxifen in medium 1 µM; 72 h
How it was run: as §1

T-47D Tam1 [6] = test: as above; details: 4-OH-tamoxifen in medium 1 µM; 72 h
How it was run: as §1

ZR-75-1 Tam2 [7] = test: as above; details: 4-OH-tamoxifen in medium 1 µM; 72 h
How it was run: as §1

T-47D [8] = test: as above; details: 72 h
How it was run: as §1

T-47D Tam2 [9] = test: as above; details: 4-OH-tamoxifen in medium 1 µM; 72 h
How it was run: as §1

BT-474 [10] = test: as above; details: 72 h
How it was run: as §1

BT-474 Tam2 [11] = test: as above; details: 4-OH-tamoxifen in medium 1 µM; 72 h
How it was run: as §1

ZR-75-1 [12] = test: relative IC50 (midpoint of fitted logistic curve, plateau may be below 50% inhibition; CellTiter-Glo viability); higher = less potent; details: 72 h
How it was run: as §1

BT-474 Tam1 [13] = test: as above; details: 4-OH-tamoxifen in medium 1 µM; 72 h
How it was run: as §1

MCF-7 Tam1 [14] = test: as above; details: 4-OH-tamoxifen in medium 1 µM; 72 h
How it was run: as §1

MCF-7 [15] = test: as above; details: 72 h
How it was run: as §1

T-47D Tam1 [16] = test: as above; details: 4-OH-tamoxifen in medium 1 µM; 72 h
How it was run: as §1

ZR-75-1 Tam2 [17] = test: as above; details: 4-OH-tamoxifen in medium 1 µM; 72 h
How it was run: as §1

T-47D [18] = test: as above; details: 72 h
How it was run: as §1

T-47D Tam2 [19] = test: as above; details: 4-OH-tamoxifen in medium 1 µM; 72 h
How it was run: as §1

BT-474 [20] = test: as above; details: 72 h
How it was run: as §1

BT-474 Tam2 [21] = test: as above; details: 4-OH-tamoxifen in medium 1 µM; 72 h
How it was run: as §1

ZR-75-1 Tam1 [22] = test: as above; details: 4-OH-tamoxifen in medium 1 µM; 72 h
How it was run: as §1

Row | relative IC50 (BT-474 Tam1 [13]) [µM] | relative IC50 (MCF-7 Tam1 [14]) [µM] | relative IC50 (MCF-7 [15]; 4-OH-tamoxifen in medium 0 µM) [µM] | relative IC50 (MCF-7 [15]; 4-OH-tamoxifen in medium 1 µM) [µM] | relative IC50 (T-47D Tam1 [16]) [µM] | relative IC50 (T-47D [18]; 4-OH-tamoxifen in medium 0 µM) [µM] | relative IC50 (T-47D [18]; 4-OH-tamoxifen in medium 1 µM) [µM] | relative IC50 (T-47D Tam2 [19]) [µM] | relative IC50 (BT-474 [20]; 4-OH-tamoxifen in medium 0 µM) [µM] | relative IC50 (BT-474 [20]; 4-OH-tamoxifen in medium 1 µM) [µM] | relative IC50 (BT-474 Tam2 [21]) [µM] | Compound | drug sensitivity score (ZR-75-1 [1]; 4-OH-tamoxifen in medium 0 µM) | drug sensitivity score (ZR-75-1 [1]; 4-OH-tamoxifen in medium 1 µM) | drug sensitivity score (BT-474 Tam1 [2]) | drug sensitivity score (MCF-7 Tam1 [3]) | drug sensitivity score (MCF-7 [4]; 4-OH-tamoxifen in medium 0 µM) | drug sensitivity score (MCF-7 [4]; 4-OH-tamoxifen in medium 1 µM) | drug sensitivity score (ZR-75-1 Tam1 [5]) | drug sensitivity score (T-47D Tam1 [6]) | drug sensitivity score (ZR-75-1 Tam2 [7]) | drug sensitivity score (T-47D [8]; 4-OH-tamoxifen in medium 0 µM) | drug sensitivity score (T-47D [8]; 4-OH-tamoxifen in medium 1 µM) | drug sensitivity score (T-47D Tam2 [9]) | drug sensitivity score (BT-474 [10]; 4-OH-tamoxifen in medium 0 µM) | drug sensitivity score (BT-474 [10]; 4-OH-tamoxifen in medium 1 µM) | drug sensitivity score (BT-474 Tam2 [11]) | relative IC50 (ZR-75-1 [12]; 4-OH-tamoxifen in medium 0 µM) [µM] | relative IC50 (ZR-75-1 Tam2 [17]) [µM] | relative IC50 (ZR-75-1 [12]; 4-OH-tamoxifen in medium 1 µM) [µM] | relative IC50 (ZR-75-1 Tam1 [22]) [µM]
1 | 2.8 | 3.2 |  | 2.36 | 1.83 |  |  | 3.17 | 3.34 | 2.38 | 1.79 | CCN(CC)CCOc1ccc(C(=C(Cl)c2ccccc2)c2ccccc2)cc1 [Clomifene citrate] | 0.493 | 1.42 | 5.39 | 3.09 | 0 | 6.09 | 1.02 | 3.26 | 2.03 | 0.434 | 1.21 | 2.56 | 4.53 | 5.95 | 8.36 |  | 3.33 | 3.81 | 
2 | > 100 | > 100 | > 100 | > 100 | > 100 | > 100 | > 100 | > 100 | > 100 | > 100 | > 100 | S=P(N1CC1)(N1CC1)N1CC1 [Thio-TEPA] | 0 | 0 | 0 | 0 | 0 | 0 | 0.276 | 0 | 0 | 0 | 0 | 0 | 0 | 0 | 0 | > 100 | > 100 | > 100 | 
3 |  | > 10 | > 10 | > 10 | > 10 | > 10 | > 10 | > 10 | > 10 | > 10 |  | Clc1ccc(Nc2nnc(Cc3ccncc3)c3ccccc23)cc1 [Vatalanib] | 0 | 0 | 0 | 0 | 0 | 0 | 0 | 0 | 0 | 0 | 0 | 0 | 0 | 0 | 0.0042 | > 10 | > 10 | > 10 | > 10
4 | > 5 | > 5 | > 5 |  | > 5 | > 5 | > 5 | > 5 | > 5 | > 5 | > 5 | C[C@@H]1CCN(C(=O)CC#N)C[C@@H]1N(C)c1ncnc2[nH]ccc12 [Tofacitinib (Tasocitinib)] | 0 | 0 | 0 | 0 | 0 | 0.208 | 0 | 0 | 0.0132 | 0 | 0 | 0 | 0 | 0 | 0 | > 5 |  | > 5 | > 5

The remaining lines, values behind:

Row | Compound | relative IC50 (BT-474 Tam1 [13]) [µM] | relative IC50 (MCF-7 Tam1 [14]) [µM] | relative IC50 (MCF-7 [15]; 4-OH-tamoxifen in medium 0 µM) [µM] | relative IC50 (MCF-7 [15]; 4-OH-tamoxifen in medium 1 µM) [µM] | relative IC50 (T-47D Tam1 [16]) [µM] | relative IC50 (T-47D [18]; 4-OH-tamoxifen in medium 0 µM) [µM] | relative IC50 (T-47D [18]; 4-OH-tamoxifen in medium 1 µM) [µM] | relative IC50 (T-47D Tam2 [19]) [µM] | relative IC50 (BT-474 [20]; 4-OH-tamoxifen in medium 0 µM) [µM] | relative IC50 (BT-474 [20]; 4-OH-tamoxifen in medium 1 µM) [µM] | relative IC50 (BT-474 Tam2 [21]) [µM] | drug sensitivity score (ZR-75-1 [1]; 4-OH-tamoxifen in medium 0 µM) | drug sensitivity score (ZR-75-1 [1]; 4-OH-tamoxifen in medium 1 µM) | drug sensitivity score (BT-474 Tam1 [2]) | drug sensitivity score (MCF-7 Tam1 [3]) | drug sensitivity score (MCF-7 [4]; 4-OH-tamoxifen in medium 0 µM) | drug sensitivity score (MCF-7 [4]; 4-OH-tamoxifen in medium 1 µM) | drug sensitivity score (ZR-75-1 Tam1 [5]) | drug sensitivity score (T-47D Tam1 [6]) | drug sensitivity score (ZR-75-1 Tam2 [7]) | drug sensitivity score (T-47D [8]; 4-OH-tamoxifen in medium 0 µM) | drug sensitivity score (T-47D [8]; 4-OH-tamoxifen in medium 1 µM) | drug sensitivity score (T-47D Tam2 [9]) | drug sensitivity score (BT-474 [10]; 4-OH-tamoxifen in medium 0 µM) | drug sensitivity score (BT-474 [10]; 4-OH-tamoxifen in medium 1 µM) | drug sensitivity score (BT-474 Tam2 [11]) | relative IC50 (ZR-75-1 [12]; 4-OH-tamoxifen in medium 0 µM) [µM] | relative IC50 (ZR-75-1 Tam2 [17]) [µM] | relative IC50 (ZR-75-1 [12]; 4-OH-tamoxifen in medium 1 µM) [µM] | relative IC50 (ZR-75-1 Tam1 [22]) [µM]
5 | COc1cc(Nc2ncc(F)c(Nc3ccc4c(n3)N(COP(=O)(O)O)C(=O)C(C)(C)O4)n2)cc(OC)c1OC | 3.56 | 6.95 | 1.79 | 2.36 | 1.43 | 2.34 | 2.89 | 2.27 | > 10 | 2.92 | > 10 | 0 | 0.307 | 2.63 | 1.04 | 2.7 | 4.99 | 1.22 | 4.15 | 1.42 | 2.65 | 1.95 | 3.3 | 0 | 2.25 | 0 | > 10 | 3.16 |  | 
6 | Oc1ncnc2[nH]ncc12 [Allopurinol] | > 10 | > 10 | > 10 | > 10 | > 10 | > 10 | > 10 | > 10 | > 10 |  |  | 0 | 0 | 0 | 0 | 0 | 0 | 0 | 0 | 0 | 0 | 0 | 0 | 0 | 2.18 | 0 | > 10 | > 10 | > 10 | 
7 | CNC(=O)c1ccc(N2C(=S)N(c3ccc(C#N)c(C(F)(F)F)c3)C(=O)C23CCC3)cc1F [RD162] |  | > 10 | > 10 |  | > 10 | > 10 |  | > 10 | > 10 | > 10 |  | 0 | 0 | 0.0464 | 0 | 0 | 1.42 | 0 | 0 | 0 | 0 | 0.215 | 0 | 0 | 0 | 0.498 | > 10 | > 10 | > 10 | > 10
8 | COc1cc(Nc2c(C#N)cnc3cc(OCCCN4CCN(C)CC4)c(OC)cc23)c(Cl)cc1Cl [Bosutinib] | 1.58 | 4.02 | 3.14 | 4.01 | 1.32 | 2.48 | 3.38 | 1.78 | 2.95 | 1.13 | 1.61 | 0.173 | 0.731 | 8.93 | 2.05 | 4.57 | 3.41 | 0.537 | 7.41 | 3.08 | 2.64 | 3.44 | 6.72 | 4.93 | 10.5 | 8.71 |  | 3.19 |  | 
